Among the test systems are ACHN renal; DLD-1 colon; DMS 114 small cell lung; HOP-18 NSCLC; HT29 colon; LXFL 529 NSCLC; M19-MEL melanoma; OVCAR-3 ovarian; RPMI-8226 leukemia; SF-268 CNS; SF-539 CNS; SNB-78 CNS; UACC-257 melanoma; XF 498 CNS; CCRF-CEM leukemia.
Test in all cases: NCI anticancer screen, dose series, 48 h

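Interpolation was linear, between the two tested concentrations surrounding the appropriate level; five concentrations were tested over 48 hours in 96-well plates. TGI is the concentration that stops growth completely.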

As for `O=c1c2cc(Br)ccc2n(C2OC(CO)C(O)C(O)C2O)c(=S)n1-c1ccccc1` (centres undefined), the TGI in the assay on ACHN renal, with DLD-1 colon, in the assay with DMS 114 small cell lung, in the assay with HOP-18 NSCLC, in the assay with HT29 colon and in the assay with LXFL 529 NSCLC was over 100 µM each time. Further, the TGI in the assay with M19-MEL melanoma, in the assay on OVCAR-3 ovarian, in the assay on RPMI-8226 leukemia, in the assay with SF-268 CNS, with SF-539 CNS and in the assay on SNB-78 CNS was over 100 µM throughout. Moreover, the TGI with UACC-257 melanoma and in the assay on XF 498 CNS was over 100 µM in each case.

For `O[C@]12c3ccccc3C1CCCC2N1CCOCC1` (some centres undefined), the TGI with ACHN renal, with CCRF-CEM leukemia, in the assay with DMS 114 small cell lung, in the assay with HOP-18 NSCLC, in the assay with HT29 colon and in the assay with LXFL 529 NSCLC was over 100 µM throughout. Besides, the TGI in the assay with M19-MEL melanoma, with RPMI-8226 leukemia, with SF-268 CNS, in the assay on SNB-78 CNS, with UACC-257 melanoma and with XF 498 CNS was over 100 µM each time.

Regarding `FC(F)(F)c1nc2c(ccc3[nH]c4c(-c5ccccc5)nccc4c32)[nH]1`, the TGI is over 100 µM in the assay on ACHN renal; over 69.1 µM with CCRF-CEM leukemia; over 100 µM with DLD-1 colon; over 61 µM with DMS 114 small cell lung; over 100 µM in the assay with HOP-18 NSCLC; over 100 µM in the assay with HT29 colon. Besides, the TGI was over 100 µM with LXFL 529 NSCLC; over 100 µM in the assay with M19-MEL melanoma; over 100 µM in the assay on OVCAR-3 ovarian; over 64.7 µM in the assay with RPMI-8226 leukemia; over 100 µM in the assay with SF-268 CNS; over 100 µM in the assay on SF-539 CNS. The TGI in the assay with SNB-78 CNS, in the assay with UACC-257 melanoma and in the assay with XF 498 CNS was over 100 µM throughout.

As to `O=C(Cc1ccccc1)N/N=C(/c1nc2ccc([N+](=O)[O-])cc2[nH]c1=O)C(O)c1ccco1` (centres undefined), the TGI in the assay on ACHN renal, with CCRF-CEM leukemia, in the assay with DLD-1 colon, in the assay on DMS 114 small cell lung, with HOP-18 NSCLC and in the assay with HT29 colon was over 100 µM each time. Further, the TGI in the assay on LXFL 529 NSCLC, in the assay with M19-MEL melanoma, in the assay on RPMI-8226 leukemia, in the assay on SF-268 CNS, in the assay with SF-539 CNS and in the assay with SNB-78 CNS was over 100 µM in each case. Further, the TGI in the assay with UACC-257 melanoma and with XF 498 CNS was over 100 µM throughout.

For the compound `C[C@@H]1C[C@@H]2C(=O)N(c3ccccc3)C(=O)[C@@H]2c2[nH]c3ccc(Br)cc3c21`, the TGI is over 100 µM with ACHN renal; over 100 µM with CCRF-CEM leukemia; over 100 µM in the assay with DLD-1 colon; over 100 µM with DMS 114 small cell lung; 62.4 µM with HOP-18 NSCLC; over 100 µM with LXFL 529 NSCLC. Moreover, the TGI in the assay on M19-MEL melanoma was over 100 µM; in the assay with OVCAR-3 ovarian, 51.7 µM; with SF-268 CNS, over 100 µM; with SF-539 CNS it was over 100 µM; in the assay with SNB-78 CNS, 71 µM; in the assay on UACC-257 melanoma, over 100 µM. The compound also returned a TGI with XF 498 CNS of 81.3 µM.

Consider `CN(C)CCSC(=Nc1ccccc1)n1cccc1`, for which the TGI in the assay on ACHN renal is over 100 µM; in the assay with CCRF-CEM leukemia, over 100 µM; in the assay with DLD-1 colon it was over 100 µM; in the assay on DMS 114 small cell lung, 80.8 µM; in the assay with HOP-18 NSCLC, over 100 µM; with HT29 colon, over 100 µM. In addition, the TGI in the assay on LXFL 529 NSCLC, in the assay on M19-MEL melanoma, in the assay on OVCAR-3 ovarian, with RPMI-8226 leukemia, in the assay with SF-268 CNS and with SF-539 CNS was over 100 µM throughout. Moreover, the figures for the TGI in the assay on SNB-78 CNS, in the assay with UACC-257 melanoma and with XF 498 CNS were 76.9 µM, over 100 µM and over 100 µM, respectively.

For the compound `NC(=S)N/N=C(/CCN1CCCC1)CC(C1=C(O)C2=CCCCC2OC1=O)c1ccccc1` (centres undefined), the TGI in the assay on ACHN renal, in the assay on CCRF-CEM leukemia, in the assay with DLD-1 colon, in the assay on HOP-18 NSCLC, in the assay with HT29 colon and in the assay on LXFL 529 NSCLC was over 100 µM in each case. The TGI in the assay on M19-MEL melanoma, with OVCAR-3 ovarian, with RPMI-8226 leukemia, with SF-268 CNS, with SF-539 CNS and in the assay with SNB-78 CNS was over 100 µM each time. The TGI in the assay with UACC-257 melanoma and with XF 498 CNS was over 100 µM each time.

Regarding `[N-]=[N+]=Nc1nnc(CCCCc2nnc(N=[N+]=[N-])o2)o1`, the TGI with ACHN renal, with CCRF-CEM leukemia, in the assay with DLD-1 colon, in the assay with DMS 114 small cell lung, in the assay on HOP-18 NSCLC and with HT29 colon was over 100 µM each time. In addition, the TGI in the assay on LXFL 529 NSCLC, with M19-MEL melanoma, in the assay on OVCAR-3 ovarian, with SF-268 CNS, in the assay with SF-539 CNS and with SNB-78 CNS was over 100 µM throughout. The TGI in the assay on UACC-257 melanoma and in the assay with XF 498 CNS was over 100 µM throughout.

Regarding `COc1ccc([C@H]2[C@@H]3CCc4ccccc4C3=NN2C(N)=S)cc1OC`, the TGI was over 100 µM with ACHN renal; over 100 µM in the assay with CCRF-CEM leukemia; over 100 µM in the assay on DLD-1 colon; 93.7 µM in the assay with DMS 114 small cell lung; over 100 µM in the assay with HOP-18 NSCLC; over 100 µM in the assay on HT29 colon. Moreover, the TGI with LXFL 529 NSCLC, in the assay with M19-MEL melanoma, in the assay with OVCAR-3 ovarian, with RPMI-8226 leukemia, with SF-268 CNS and with SF-539 CNS was over 100 µM in each case. The TGI with SNB-78 CNS, in the assay with UACC-257 melanoma and in the assay with XF 498 CNS was over 100 µM each time.

For the compound `COc1cc(CO)cc2c1[nH]c1ccccc12`, the TGI in the assay on ACHN renal, in the assay on CCRF-CEM leukemia, in the assay on DLD-1 colon, with DMS 114 small cell lung, with HOP-18 NSCLC and with HT29 colon was over 25 µM each time. The TGI in the assay with LXFL 529 NSCLC, in the assay with M19-MEL melanoma, in the assay with OVCAR-3 ovarian, in the assay with RPMI-8226 leukemia, in the assay with SF-268 CNS and in the assay with SF-539 CNS was over 25 µM in each case. Besides, the TGI with SNB-78 CNS and in the assay with XF 498 CNS was over 25 µM each time.

As for `CC(=O)OCc1ncccc1C(OC(C)=O)OC(C)=O`, the TGI in the assay on ACHN renal, in the assay with CCRF-CEM leukemia, in the assay with DLD-1 colon, in the assay on DMS 114 small cell lung, in the assay with HOP-18 NSCLC and in the assay on HT29 colon was over 100 µM each time. Moreover, the TGI in the assay with LXFL 529 NSCLC, in the assay on M19-MEL melanoma, in the assay with OVCAR-3 ovarian, in the assay on SF-268 CNS, in the assay on SF-539 CNS and with SNB-78 CNS was over 100 µM in each case. Also, the TGI with UACC-257 melanoma and in the assay on XF 498 CNS was over 100 µM throughout.

The values are drawn from PubChem BioAssay (NCI).
